{"source": "paper PMC5656322", "about": "“BAK1 is involved in AtRALF1-induced inhibition of root cell expansion” (PLoS Genetics, 2017)", "key": {"[1]": {"tested_on": "BRI1 (BRI1-ECD)", "experiment": "Yeast two-hybrid with BRI1-ECD", "assay_type": "binding, Arabidopsis thaliana", "settings": "yeast AH109, medium lacking Leu, Trp, His", "from_the_text": "Fig 6 AtRALF1 interacts physically with BAK1 protein. (A) The active AtRALF1 peptide interacts with the extracellular domain (ECD) of BAK1 (BAK1-ECD) in yeast. The AtRALF1 protein fused to the GAL4 DNA-binding domain (AtRALF1-pGBKT7) was used as bait to test its interaction with the extracellular domain of the proteins fused to the GAL4 activation domain (pGADT7): BAK1 (BAK1-ECD), BAK7 (BAK7-ECD), BRI1 (BRI1-ECD) and FLS2 (FLS2-ECD). (B) Blueprint showing the truncated proteins from the extracellular domain of BAK1 tested in the two-hybrid assay. The extracellular domain of BAK1 comprises leucine zippers (LZ), 5 leucine rich-regions (LRRs) and a proline-rich region (pro-rich). (C) AtRALF1-pGBKT7 was used as bait to test its interaction with truncated proteins fused to the GAL4 activation domain (pGADT7). […] HA-BAK1-ECD was detected with an anti-HA antibody. AtRALF1 was detected with an anti-RALF antibody. […] BAK1-GFP was detected with an anti-GFP antibody. […]\nThe coding regions of the mature peptides AtRALF1 and AtRALF34 were amplified from Arabidopsis genomic DNA and fused to the GAL4 DNA-binding domain and the MYC epitope tag using the NdeI/BamHI sites in the pGBKT7 (Clontech) vector. […] The proteins fused to the HA and MYC epitope tags were detected by protein blotting. […]"}, "[2]": {"experiment": "ITC of AtRALF1 into buffer", "assay_type": "physicochemical", "settings": "AtRALF1 0.7 mM injected in 15 mM HEPES, pH 6.8, 25°C (S15A Fig)", "protocol": "ITC was performed using a VP ITC with a 1.4 ml standard cell and a 293 μl titration syringe. Proteins were dissolved in ITC buffer (15 mM HEPES (4-(2-hydroxyethyl)-1-piperazineethanesulfonic acid, pH 6.8) and the experiments were performed at 25°C. Molar protein concentration for BAK1-ECD and AtRALF1 were calculated using their molecular weight of 25,654.04 and 7,631 Da, respectively (determined by HPLC). The concentrations for the complex titrations were 0.7 mM of protein (BAK1-ECD) in the syringe and 0.03 mM of ligand (AtRALF1) in the cell at time intervals of 300 s (28 injections of volume 10 μl) to ensure that the titration peak returned to the baseline.\nSupplementary file pgen.1007053.s015.pdf: S15 Fig Isothermal titration calorimetry (ITC) of AtRALF1 and BAK1-ECD. (A) AtRALF1 in 15mM HEPES, pH 6.8. ITC experiments were simulated using the following parameters: 28 injections of AtRALF1 (0.7 mM, volume 10 μL) in HEPES (volume cell = 1.4 mL) at 25°C. (B) BAK1-ECD in 15mM HEPES, pH 6.8. ITC experiments were simulated using the following parameters: 28 injections of BAK1-ECD (0.7 mM, volume 10 μL) in HEPES (volume cell = 1.4 mL) at 25°C. (C) HEPES in AtRALF1. ITC experiments were simulated using the following parameters: 28 injections of buffer 15mM HEPES, pH 6.8 (volume 10 μL) in AtRALF1 (0.03 mM, volume cell = 1.4 mL) at 25°C. (PDF) Click here for additional data file."}, "[3]": {"tested_on": "BAK1 gene", "settings": "Arabidopsis plants; ref [10]; cited from earlier work", "from_the_text": "It has been previously shown through microarray experiments that the treatment of Arabidopsis plants with AtRALF1 causes BAK1 gene induction by approximately 1.56-fold. Our data are consistent with that previous observation and add a new gene to the list of AtRALF1-inducible genes. […] The fact that AtRALF1 peptide and BL treatment both induce BAK1 gene expression provides further evidence that BAK1 ..."}}, "note": "Where no end group is shown, it is not given here."}
{"substance": "AtRALF1: root-specific RALF isoform in Arabidopsis; recombinant peptide hormone produced in E. coli (ATTKYISYQSLKRNSVPCSRRGASYYNCQNGAQANPYSRGCSKIARCRS; ends and bridges not checked; cysteine pairing not given here)", "values": [{"measurement": "interaction with BRI1-ECD (Y2H complementation)", "setting": "[1]", "value": "able to complement only the BAK1-ECD construct"}, {"measurement": "heat of dissociation", "setting": "[2]", "value": "exhibits heat of dissociation"}, {"measurement": "BAK1 gene induction (microarray)", "setting": "[3]", "value": "approximately 1.56 -fold"}]}
